Experimental findings from paper PMC4806471, “Oral proteasome inhibitor with strong preclinical efficacy in myeloma models” (BMC Cancer, 2016) are described below.

A word on the IC50: it is the concentration that inhibits the measured activity by half. A low value points to greater potency in that assay.

One data set concerns proteasome CT-L activity. The data set can be described thus: Binding kinetics: CT-L activity in RPMI8226 cells at different time points after 1-h pulse treatment. Format: cell-based, human. To be noted: CT-L activity in RPMI8226 cells after 1-h pulse treatment.
Data set [1] deals with MM.1S xenografts. The data set can be described thus: MM.1S xenograft study of LC53-0151 with or without pomalidomide. It counts as in vivo, mice. To be noted: pomalidomide 2.5 mg/kg oral 5 days per week, 3 weeks; not statistically significant. The procedure:
(§1) In vivo efficacy studies were performed in female BALB/c nude mice (8 weeks old) purchased from ORIENT Bio or female NOD.SCID mice (11–13 weeks old) purchased from HFK Bioscience. The animals were housed and maintained in a controlled environment including a 12 h light and 12 h dark cycle with automatic timers and received food and water ad libitum. All experiments were done under protocols approved by the Institutional Animal Care and Use Committee (IACUC). Moribund animals were sacrificed when necessary and animal carcasses were disposed of according to IACUC guidelines.
1 × 10^7 MM.1S tumor cells in 0.1 ml of Dulbecco’s Phosphate-Buffered Saline (1:1 matrigel) were implanted subcutaneously into the right flank of female athymic nude mice. Tumor growth was monitored with calipers and mice were divided into homogeneous cohorts according to their initial tumor volume. […] The compounds were formulated in 0.5 % methyl cellulose and administered at the indicated doses and regimens by oral gavage at a dose volume of 10 mL/kg. […] The mean, standard deviation (SD), and standard error of the mean (SEM) were calculated for each experimental group, and statistical analyses were performed using standard two tailed Student’s t-test (significance defined as P ≤ 0.05). […]

For the next data set, the target named is T1, 20S proteasome T-L, β2 (Homo sapiens, UniProt Q99436).
T1 sequence (Q99436 44-277): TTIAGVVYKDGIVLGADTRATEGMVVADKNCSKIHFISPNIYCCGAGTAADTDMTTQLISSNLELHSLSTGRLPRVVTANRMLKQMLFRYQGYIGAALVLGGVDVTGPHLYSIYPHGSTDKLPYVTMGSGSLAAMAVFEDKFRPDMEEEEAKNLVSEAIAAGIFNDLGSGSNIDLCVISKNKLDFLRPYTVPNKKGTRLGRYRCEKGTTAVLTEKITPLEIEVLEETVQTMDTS
The data set can be described thus: In vitro 20S proteasome inhibition in RPMI8226 cell lysate, Z-Ala-Arg-Arg-AMC substrate. Format: biochemical. The note with it: RPMI8226 cellular lysates, 1 h at 37 °C. The procedure: (§2) Pomalidomide was purchased from Tokyo Chemical Industry.
(§3) RPMI8226 cell lysate was used for the in vitro proteasome inhibition assay. Cells were washed with PBS and resuspended in 20 mM Tris–HCl, pH 7.5. Then, cells were lysed on ice by dounce homogenization and the supernatants were collected by centrifugation. The assay was conducted in 96-well plates by incubating 2 μg of lysates with serial dilutions of a test compound and 20 μM of substrate at 37 °C for 1 h. After incubation, production of hydrolyzed AMC groups was measured using a FlexStation II Fluorometer (Molecular Devices) or using a Spectra MAX Gemini Fluorometer (Molecular Devices) with an excitation filter of 380 nm and an emission filter of 460 nm.

Another data set addresses T2, 20S proteasome C-L, β1 (Homo sapiens, UniProt P28072+Q99436).
T2 construct: endogenous in cells; host or cells: RPMI8226 (human multiple myeloma)
The data set can be described thus: In vitro 20S proteasome inhibition in RPMI8226 cell lysate, Z-Leu-Leu-Glu-AMC substrate. It counts as biochemical. To be noted: RPMI8226 cellular lysates, 1 h at 37 °C. Here is the method: as §2, §3

In data set [2] the test system is CD138+ cells from bone marrow of MM patients. The data set can be described thus: Viability of primary myeloma cells from MM patients (CellTiter-Glo). Format: cell-based, human. The note with it: patient 14 sample (bortezomib- and ixazomib-refractory), 48 h, % over DMSO control. Here is the method: (§4) Primary MM cells were retrieved from bone marrow of patients and were enriched by Ficoll density centrifugation to a purity of >90 %, as necessary. Purity was assessed by cytomorphology on stained samples. CD138^+ cells were collected using magnetic beads (Miltenyi Biotec) and plated at a density of 8 × 10^4 cells per well onto 96-well plates in RPMI-1640 (WELGENE) containing 10 % FBS (WELGENE), 1 % penicillin-streptomycin-amphotericin B (Gibco), and 2 mM L-glutamine. Cells were then treated with a serial dilution of compound in medium containing a final concentration of 0.2 % DMSO. Cultures were incubated for 48 h and cells were then assayed for viability using the CellTiter-Glo Luminescent Cell Viability Assay kit (Promega).
(In general: In ATP-based viability assays light output follows the ATP content of the culture.)

Data set [3] is described as follows: Cytotoxicity in normal PBMC from healthy donors (CellTiter-Glo). It counts as cell-based. The note with it: human, 10,000 nM, read-out: Viability of normal PBMC at highest concentration tested. Here is the method:
as §4
Peripheral blood mononuclear cells (PBMCs) isolated from the heparinized blood samples of normal healthy donors were also plated and processed as described above.

Data set [4] concerns MM.1S xenografts. The data set can be described thus: Anti-tumor activity of repeat oral dosing in MM.1S xenograft model. It counts as in vivo, mice. To be noted: 5 mg/kg oral twice a week. Here is the method: as §1
1 × 10^7 MM.1S tumor cells in 0.1 ml of Dulbecco’s Phosphate-Buffered Saline (1:1 matrigel) were implanted subcutaneously into the right flank of female athymic nude mice. Tumor growth was monitored with calipers and mice were divided into homogeneous cohorts according to their initial tumor volume. […] The compounds were formulated in 0.5 % methyl cellulose and administered at the indicated doses and regimens by oral gavage at a dose volume of 10 mL/kg. For the RPMI8226 model, a total of 1 × 10^7 cells in 0.2 ml of PBS (1:1 matrigel) were implanted subcutaneously into the hind flank of female NOD.SCID mice. Whole blood was collected by cardiac puncture into tubes containing sodium heparin and cells were harvested by centrifugation. Blood cell pellets and tumor tissues were homogenized in lysis buffer (50 mM Tris–HCl, pH 8.0, 5 mM EDTA, 150 mM NaCl, 0.5 % Nonidet P-40, 0.5 mM phenylmethylsulfonyl fluoride, and 0.5 mM dithiothreitol) for 30 min at 4 °C. The lysates were centrifuged at 14,000 × g for 30 min, and the supernatants were collected as whole blood cell extracts and tumor cell extracts, respectively, for pharmacodynamic analysis. […] The mean, standard deviation (SD), and standard error of the mean (SEM) were calculated for each experimental group, and statistical analyses were performed using standard two tailed Student’s t-test (significance defined as P ≤ 0.05).

In the next data set the test system is RPMI8226 xenografts. The data set can be described thus: Anti-tumor activity of repeat dosing in RPMI8226 xenograft model. Format: in vivo. The note with it: 5 mg/kg oral, the day after the first treatment, NOD.SCID mice. The procedure:
as §1
1 × 10^7 MM.1S tumor cells in 0.1 ml of Dulbecco’s Phosphate-Buffered Saline (1:1 matrigel) were implanted subcutaneously into the right flank of female athymic nude mice. Tumor growth was monitored with calipers and mice were divided into homogeneous cohorts according to their initial tumor volume. […] The compounds were formulated in 0.5 % methyl cellulose and administered at the indicated doses and regimens by oral gavage at a dose volume of 10 mL/kg. […] The mean, standard deviation (SD), and standard error of the mean (SEM) were calculated for each experimental group, and statistical analyses were performed using standard two tailed Student’s t-test (significance defined as P ≤ 0.05).

For `CC(C)C[C@H](NC(=O)[C@H](Cc1ccccc1)NC(=O)c1cnccn1)B(O)O` [Bortezomib], in the data set with proteasome CT-L activity, the Binding kinetics entry is “reversible”.

For the compound `Nc1cccc2c1C(=O)N(C1CCC(=O)NC1=O)C2=O` (stereo not drawn) [pomalidomide, Pomalidomide], in the data set on MM.1S xenografts [1], the “Reduction of tumor volume compared to vehicle-treated mice” value came out at 10%.

For the compound `CC(C)C[C@H](NC(=O)CNC(=O)c1cc(Cl)ccc1Cl)B(O)O` [Ixazomib], on 20S proteasome T-L, β2, the IC50 was over 10000 nM. The same compound showed an IC50 against 20S proteasome C-L, β1 of 6 to 7 nM. For the same compound, in the data set on proteasome CT-L activity, the Binding kinetics entry is given as “reversible”. Moreover, the “Viability at 12.5 nM” value in data set [2] is given as “did not show any effect on viability”. Also, the viability at 48 h, 10000 nM in data set [3] was over 50%. For the same compound, the “Tumor volume, % of start tumor volume (maximum regression)” value in the data set with MM.1S xenografts [4] (day 8) came out at 36%. In addition, in the data set on MM.1S xenografts [4] (day 15), the “Tumor growth inhibition compared to vehicle control” value amounted to 72% and the “Tumor volume, % of start tumor volume” value was determined as 58%. For the same compound, the “Mortality in efficacy model” value in the data set with RPMI8226 xenografts was “all 8 mice died or were euthanized”.

Turning to `CC(C)C[C@H](NC(=O)[C@H](CCc1ccccc1)NC(=O)CN1CCOCC1)C(=O)N[C@@H](Cc1ccccc1)C(=O)N[C@@H](CC(C)C)C(=O)[C@@]1(C)CO1` [Carfilzomib], the Binding kinetics entry in the data set on proteasome CT-L activity is recorded as “irreversible”.
